pKi: −log10 of the molar value.
Test: Inhibition of [3H]pentazocine binding to Sigma opioid receptor type 1

Compound | pKi
CC1(C)C2CC[C@]1(C)CN(CCC1CCCCCC1)C2 [(S)-3-(2-Cycloheptyl-ethyl)-1,8,8-trimethyl-3-aza-bicyclo[3.2.1]octane] | 8.54
CC1(C)C2CC[C@]1(C)CN(CCCCC1CCCCC1)C2 [(S)-3-(4-Cyclohexyl-butyl)-1,8,8-trimethyl-3-aza-bicyclo[3.2.1]octane] | 8.92
CC1(C)C2CC[C@]1(C)CN(CCC1CCCCCCC1)C2 [(S)-3-(2-Cyclooctyl-ethyl)-1,8,8-trimethyl-3-aza-bicyclo[3.2.1]octane] | 8.54
CC1(C)C2CC[C@]1(C)CN(C1CCCCC1)C2 [(S)-3-Cyclohexyl-1,8,8-trimethyl-3-aza-bicyclo[3.2.1]octane] | 8.52
CC1(C)C2CC[C@@]1(C)CN(CC1CCCCC1)C2 [(R)-3-Cyclohexylmethyl-1,8,8-trimethyl-3-aza-bicyclo[3.2.1]octane] | 8.96
CC1(C)C2CC[C@@]1(C)CN(CCC1CCCCC1)C2 [(R)-3-(2-Cyclohexyl-ethyl)-1,8,8-trimethyl-3-aza-bicyclo[3.2.1]octane] | 8.85
CC1(C)C2CC[C@]1(C)CN(CCC1C3CC4CC(C3)CC1C4)C2 (stereo partly drawn) [(S)-3-(2-Adamantan-2-yl-ethyl)-1,8,8-trimethyl-3-aza-bicyclo[3.2.1]octane] | 8.37
CC1(C)C2CC[C@]1(C)CN(CCC1CCCCC1)C2 [(S)-3-(2-Cyclohexyl-ethyl)-1,8,8-trimethyl-3-aza-bicyclo[3.2.1]octane] | 8.66
CC1(C)C2CC[C@]1(C)CN(CC1CCCCC1)C2 [(S)-3-Cyclohexylmethyl-1,8,8-trimethyl-3-aza-bicyclo[3.2.1]octane] | 8.89
CC1(C)C2CC[C@]1(C)CN(CCC1CCCC1)C2 [(S)-3-(2-Cyclopentyl-ethyl)-1,8,8-trimethyl-3-aza-bicyclo[3.2.1]octane] | 8.77
C=CCN1CC[C@@]2(C)c3cc(O)ccc3C[C@H]1[C@H]2C [(1S,9S,13S)-10-allyl-1,13-dimethyl-10-azatricyclo[7.3.1.0~2,7~]trideca-2,4,6-trien-4-ol] | 6.80
CC1(C)C2CC[C@]1(C)CN(CCCC1CCCCC1)C2 [(S)-3-(3-Cyclohexyl-propyl)-1,8,8-trimethyl-3-aza-bicyclo[3.2.1]octane] | 8.60

From BindingDB's records for doi:10.1016/S0960-894X(97)00417-4 (1997)
